Source: PMC10461232, “Structure-Based Design of Transport-Specific Multitargeted One-Carbon Metabolism Inhibitors in Cytosol and Mitochondria” (Journal of Medicinal Chemistry, 2023)
Where two headings read alike, the source gives them in different places.

Experiments:
D4 (FRβ) CHO cells = assay: Growth inhibition, D4 CHO cells expressing human FRβ; format: cell-based, Chinese hamster; conditions: for IC50: Cricetulus griseus, CHO, 96 h, mean (SE); for difference between D4 (FRβ) and RT16 (FRα) IC50: RT16 versus D4 CHO cells
KB (RFC/PCFT/FRα) cells = assay: Growth inhibition, KB nasopharyngeal carcinoma cells; format: cell-based, human; conditions: Homo sapiens, KB, folate-free RPMI 1640, 2 nM leucovorin, mean (SE)
Description: The CHO cells were cultured in α-minimal essential medium (MEM) supplemented with 10% bovine calf serum (Fisher Scientific), penicillin (1000 U/mL)/streptomycin (1000 μg/mL), and 2 mM L-glutamine at 37 °C with 5% CO2. All of the R2 transfected cells (PC43-10, RT16, R2/PCFT4) were cultured in complete α-MEM media plus 1 mg/mL G418. Prior to the cytotoxicity assays (see below), RT16 and D4 cells were cultured for 3 days in complete folate-free RPMI 1640 (without added folate), and R2/PCFT4 and R2 cells were cultured in complete folate-free RPMI 1640 supplemented with dialyzed fetal bovine serum (Fisher Scientific) and 25 nM leucovorin plus 1 mg/mL G418. KB cells were routinely cultured in folate-free RPMI 1640 medium, supplemented with 10% fetal bovine serum (Fisher Scientific), penicillin-streptomycin solution, and 2 mM L-glutamine at 37 °C with 5% CO2.
For growth inhibition studies, cells (CHO, KB) were plated in 96-well dishes (∼2500–5000 cells/well, total volume of 200 μL medium) over a range of antifolate concentrations.[69],[77] The medium was folate-free RPMI 1640 with 10% dialyzed serum and antibiotics supplemented with 25 nM leucovorin for experiments with R2, PC43-10, and R2/PCFT4 cells. For experiments with RT16, D4, and KB cells, cells were cultured in folate-free RPMI medium with 10% dialyzed fetal bovine serum and antibiotics; the medium was supplemented with 2 nM leucovorin. […] Incubations were routinely for up to 96 h. Viable cells (reflecting cell viability) were assayed with Cell Titer Blue reagent (Promega, Madison, WI), with fluorescence measured (590 nm emission, 560 nm excitation) with a fluorescence plate reader.

[1] = system: R2 (MTXRIIOuaR2-4) CHO cells; assay: Growth inhibition, transporter-null R2 CHO cells; format: cell-based, Chinese hamster; conditions: Cricetulus griseus, 96 h, read-out: IC50 R2
HPAC (RFC/PCFT) cells = assay: Proliferation inhibition, HPAC pancreatic adenocarcinoma cells; format: cell-based, human; conditions: for IC50: HPAC cells, folate- and glycine-free RPMI, 25 nM leucovorin, mean (SE)
Excerpt: (§1) The RFC-, PCFT-, and FR-null MTXRIIOua^R2–4 (R2), and RFC- (PC43-10), PCFT- (R2/PCFT4), FRα- (RT16), and FRβ- (D4) expressing CHO sublines were previously described.[62]−[64],[76] HPAC pancreatic cancer cells were generously provided by Dr. Yubin Ge (Karmanos Cancer Institute, Detroit, MI). Human pancreatic normal epithelial (HPNE) cells[67] were a gift from M. Oulette (University of Nebraska Medical Center, Omaha, NE). KB human nasopharyngeal carcinoma cells were purchased from the American Type Culture Collection (Manassas, VA). All human cell lines were validated by STR analysis by Genetica DNA Laboratories (Burlington, NC). Cell lines were tested for Mycoplasma by PCR using a Mycloplasma testing kit (Venor GeM Mycoplasma Detection Kit, Sigma). Frozen stocks were generated from authenticated Mycoplasma-free cultures.

PC43-10 (RFC) CHO cells = assay: Growth inhibition, PC43-10 CHO cells expressing human RFC; format: cell-based, Chinese hamster; conditions: Cricetulus griseus, 96 h, read-out: IC50 PC43-10 (RFC)
HPNE (RFC) cells = assay: Proliferation inhibition, HPNE normal pancreatic epithelial cells; format: cell-based; conditions: Homo sapiens, folate- and glycine-free RPMI, 25 nM leucovorin
Excerpt: as §1

[2] = system: R2/PCFT4 (PCFT) CHO cells; assay: Growth inhibition, R2/PCFT4 CHO cells expressing human PCFT; format: cell-based, Chinese hamster; conditions: Cricetulus griseus, 96 h, read-out: IC50 R2/PCFT4 (PCFT)
RT16 (FRα) CHO cells = assay: Growth inhibition, RT16 CHO cells expressing human FRα; format: cell-based, Chinese hamster; conditions: 96 h, mean (SE)
[3] = read-out: IC50 D4 (FRβ), CHO cells expressing human FRβ, 96 h, 2 nM leucovorin
[4] = Cricetulus griseus, read-out: IC50 RT16 (FRα), CHO cells expressing human FRα, 96 h, 2 nM leucovorin
[5] = CHO cells expressing human FRβ, 2 nM leucovorin, read-out: IC50 D4 (FRβ)
[6] = transporter-null CHO cells, 25 nM leucovorin, mean (SE)
[7] = CHO cells expressing human RFC, 25 nM leucovorin, mean (SE)
[8] = CHO cells expressing human PCFT, 25 nM leucovorin, mean (SE)
[9] = Cricetulus griseus, CHO cells expressing human FRα, 2 nM leucovorin, read-out: IC50 RT16 (FRα)

Structure (SMILES) | IC50 (D4 (FRβ) CHO cells; [3]) | IC50 (KB (RFC/PCFT/FRα) cells) | IC50 ([1]; CHO) | IC50 (HPAC (RFC/PCFT) cells) | IC50 (HPAC (RFC/PCFT) cells; Homo sapiens, HPAC) | IC50 (PC43-10 (RFC) CHO cells) | IC50 (HPNE (RFC) cells) | IC50 [2] | IC50 (RT16 (FRα) CHO cells; [4]) | IC50 (D4 (FRβ) CHO cells; [5]) | difference between D4 (FRβ) and RT16 (FRα) IC50 (D4 (FRβ) CHO cells) | IC50 [1, 6] | IC50 (PC43-10 (RFC) CHO cells; [7]) | IC50 [2, 8] | IC50 (RT16 (FRα) CHO cells; [9]) | IC50 HPAC (RFC/PCFT) (HPAC (RFC/PCFT) cells) | IC50 (RT16 (FRα) CHO cells; CHO cells expressing human FRα, 2 nM leucovorin, read-out: IC50 RT16 (FRα))
Nc1nc2ccn(CCCCCc3ccc(C(=O)N[C@@H](CCC(=O)O)C(=O)O)s3)c2c(=O)[nH]1 [Compound 3] | 7.89 nM | 7.47 nM | > 1000 nM | 746 nM | 746 nM | > 1000 nM | > 5000 nM | > 1000 nM | 14.6 nM | – | – | – | – | – | – | – | –
Nc1nc2ccn(CCCc3ccc(C(=O)N[C@@H](CCC(=O)O)C(=O)O)s3)c2c(=O)[nH]1 [Compound 4] | – | 23.7 nM | – | – | 2990 nM | – | > 5000 nM | – | – | 1.94 nM | 20- to 40 fold | > 1000 nM | > 1000 nM | 497 nM | 33 nM | – | –
Nc1nc2ccn(CCCOc3ccc(C(=O)N[C@@H](CCC(=O)O)C(=O)O)cc3)c2c(=O)[nH]1 [Compound 5, (4-(3-(2-Amino-4-oxo-3,4-dihydro-5H-pyrrolo[3,2-d]pyrimidin-5-yl)propoxy)benzoyl)-L-glutamic Acid] | – | 8.23 nM | – | 1670 nM | 1200 to 1600 nM | – | > 5000 nM | – | – | 0.45 nM | 20- to 40 fold | > 1000 nM | > 1000 nM | > 1000 nM | 18.7 nM | – | –
Nc1nc2ccn(CCOc3ccc(C(=O)N[C@@H](CCC(=O)O)C(=O)O)cc3)c2c(=O)[nH]1 [Compound 6, (4-(3-(2-Amino-4-oxo-3,4-dihydro-5H-pyrrolo[3,2-d]pyrimidin-5-yl)ethoxy)benzoyl)-L-glutamic Acid] | – | 11.2 nM | – | – | 4620 nM | – | > 5000 nM | – | – | 1.62 nM | 20- to 40 fold | > 1000 nM | > 1000 nM | 431 nM | 67.7 nM | – | –
Nc1nc2ccn(CCCNc3ccc(C(=O)N[C@@H](CCC(=O)O)C(=O)O)cc3)c2c(=O)[nH]1 [Compound 8, (4-((3-(2-Amino-4-oxo-3,4-dihydro-5H-pyrrolo[3,2-d]pyrimidin-5-yl)propyl)amino)benzoyl)-L-glutamic Acid] | – | 6.17 nM | – | – | > 5000 nM | – | > 5000 nM | – | – | – | – | > 1000 nM | > 1000 nM | > 1000 nM | 6.88 nM | – | –
Nc1nc2ccn(CCCCCc3ccc(C(=O)N[C@@H](CCC(=O)O)C(=O)O)cc3)c2c(=O)[nH]1 [Compound 9] | – | 6.3 nM | – | – | 1620 nM | – | > 5000 nM | – | – | 6.33 nM | – | > 1000 nM | > 1000 nM | > 1000 nM | 13.5 nM | – | –
Nc1nc2ccn(CCCCCc3ccc(C(=O)N[C@@H](CCC(=O)O)C(=O)O)c(F)c3)c2c(=O)[nH]1 [Compound 11, (4-(5-(2-Amino-4-oxo-3,4-dihydro-5H-pyrrolo[3,2-d]pyrimidin-5-yl)pentyl)-2-fluorobenzoyl)-L-glutamic Acid] | 6.95 nM | 6.25 nM | > 1000 nM | – | 1230 nM | > 1000 nM | > 5000 nM | > 1000 nM | 26.8 nM | – | – | – | – | – | – | – | –
Nc1nc2ccn(CCCCc3cc(F)c(C(=O)N[C@@H](CCC(=O)O)C(=O)O)c(F)c3)c2c(=O)[nH]1 [Compound 12, (4-(4-(2-Amino-4-oxo-3,4-dihydro-5H-pyrrolo[3,2-d]pyrimidin-5-yl)butyl)-2,6-difluorobenzoyl)-L-glutamic Acid] | – | 9.26 nM | – | – | > 5000 nM | – | > 5000 nM | – | – | 7.5 nM | – | > 1000 nM | > 1000 nM | > 1000 nM | 2.55 nM | – | –
Nc1nc2ccn(CCCc3ccc(C(=O)N[C@@H](CCC(=O)O)C(=O)O)c(F)c3)c2c(=O)[nH]1 [Compound 13, (4-(3-(2-Amino-4-oxo-3,4-dihydro-5H-pyrrolo[3,2-d]pyrimidin-5-yl)propyl)-2-fluorobenzoyl)-L-glutamic Acid] | – | 8.34 nM | – | – | 166 nM | – | > 5000 nM | – | – | 0.63 nM | 20- to 40 fold | > 1000 nM | 233 nM | 98 nM | 16.3 nM | 2600 to 4600 nM | –
Nc1nc2ccn(CCCCc3ccc(C(=O)N[C@@H](CCC(=O)O)C(=O)O)cc3)c2c(=O)[nH]1 [Compound 15] | – | 6.81 nM | – | – | 2590 nM | – | > 5000 nM | – | – | – | – | > 1000 nM | > 1000 nM | > 1000 nM | < 3 nM | – | 1.64 nM
